The numbers were not newly measured in patent US8071763B2, “Methods for treatment of nocturia” (Daiichi Sankyo Company, Limited, priority 2002, dated 2011), which cites them from elsewhere.

Where two headings read alike, the source gives them in different places.

Data set [1] relates to nocturia. Particulars: 100 mg suppository, open trial, 15 patients; cited from earlier work.
Data set [2] concerns nocturia. Particulars: one patient; suppository administered as antipyretics; cited from earlier work.

Regarding `COc1ccc2c(c1)c(CC(=O)O)c(C)n2C(=O)c1ccc(Cl)cc1` [indomethacin], the Effect on nocturia result was “improved nocturia in all 15 patients” in data set [1] and “nocturia was improved” in data set [2].
